Data published in patent US20190330224A1, “ACC INHIBITORS AND USES THEREOF” (Gilead Apollo, LLC, priority 2015, published 2019).
Values after ≈ are worked out from the molar mass of the structure shown. Like-named read-outs stand apart in the source and are kept apart here.

Tests used:
C. krusei ATCC 6258 = assay: Anti-Fungal Activity Assay (broth microtiter MIC), C. krusei; type: cell-based, Candida krusei; details: for MIC: Pichia kudriavzevii, ATCC6258, 48 h, read-out: MIC C. krusei ATCC 6258
Protocol: (§1) Compounds of the present invention were evaluated in an Anti-Fungal Activity Assay. An exemplary procedure for the assay, which measures the susceptibility of various Candida species to anti-fungal compounds, follows. Compounds to be tested (including fluconazole and amphotericin B) were dissolved in DMSO to obtain a solution having a concentration of 1 mg/mL. […] All species were grown from frozen stock by directly plating on to freshly prepared Sabouraud Dextrose agar (BD, Difco) and incubated overnight in ambient air at 35° C. for 24 h. A direct suspension was prepared in RPMI 1640+MOPS (Lonza, Biowhittaker) by taking individual colonies from the overnight cultures using sterile swabs soaked in sterile saline. The concentration of the suspension was determined using pre-determined standard curves. […] Broth microtiter MIC challenge plates were prepared following CLSI guidelines (M27-A3, Vol. 28 No. 14). The original CLSI guidelines focused on reading Candida MICs after 48 h of incubation. As reading after only 24 h offers a clear advantage of patient care, QC limits are being established for all drugs at 24 h. That being said there are no known interpretive breakpoints for amphotericin B at 24 h and the current fluconazole interpretive breakpoints are based on a 48 h reading. The MIC breakpoints for the test compounds were recorded at 48 h, and for the soraphen the 24 h time-point was added. All MIC determinations were achieved by visually comparing the growth found in the antibiotic challenged wells to that of the growth control.

Fungal ACC2 = Fungal ACC2 (UniProt Q00955); details: read-out: Fungal ACC2 (IC50, in vitro ACC2 inhibition)
Sequence of Fungal ACC2 (Q00955 whole entry): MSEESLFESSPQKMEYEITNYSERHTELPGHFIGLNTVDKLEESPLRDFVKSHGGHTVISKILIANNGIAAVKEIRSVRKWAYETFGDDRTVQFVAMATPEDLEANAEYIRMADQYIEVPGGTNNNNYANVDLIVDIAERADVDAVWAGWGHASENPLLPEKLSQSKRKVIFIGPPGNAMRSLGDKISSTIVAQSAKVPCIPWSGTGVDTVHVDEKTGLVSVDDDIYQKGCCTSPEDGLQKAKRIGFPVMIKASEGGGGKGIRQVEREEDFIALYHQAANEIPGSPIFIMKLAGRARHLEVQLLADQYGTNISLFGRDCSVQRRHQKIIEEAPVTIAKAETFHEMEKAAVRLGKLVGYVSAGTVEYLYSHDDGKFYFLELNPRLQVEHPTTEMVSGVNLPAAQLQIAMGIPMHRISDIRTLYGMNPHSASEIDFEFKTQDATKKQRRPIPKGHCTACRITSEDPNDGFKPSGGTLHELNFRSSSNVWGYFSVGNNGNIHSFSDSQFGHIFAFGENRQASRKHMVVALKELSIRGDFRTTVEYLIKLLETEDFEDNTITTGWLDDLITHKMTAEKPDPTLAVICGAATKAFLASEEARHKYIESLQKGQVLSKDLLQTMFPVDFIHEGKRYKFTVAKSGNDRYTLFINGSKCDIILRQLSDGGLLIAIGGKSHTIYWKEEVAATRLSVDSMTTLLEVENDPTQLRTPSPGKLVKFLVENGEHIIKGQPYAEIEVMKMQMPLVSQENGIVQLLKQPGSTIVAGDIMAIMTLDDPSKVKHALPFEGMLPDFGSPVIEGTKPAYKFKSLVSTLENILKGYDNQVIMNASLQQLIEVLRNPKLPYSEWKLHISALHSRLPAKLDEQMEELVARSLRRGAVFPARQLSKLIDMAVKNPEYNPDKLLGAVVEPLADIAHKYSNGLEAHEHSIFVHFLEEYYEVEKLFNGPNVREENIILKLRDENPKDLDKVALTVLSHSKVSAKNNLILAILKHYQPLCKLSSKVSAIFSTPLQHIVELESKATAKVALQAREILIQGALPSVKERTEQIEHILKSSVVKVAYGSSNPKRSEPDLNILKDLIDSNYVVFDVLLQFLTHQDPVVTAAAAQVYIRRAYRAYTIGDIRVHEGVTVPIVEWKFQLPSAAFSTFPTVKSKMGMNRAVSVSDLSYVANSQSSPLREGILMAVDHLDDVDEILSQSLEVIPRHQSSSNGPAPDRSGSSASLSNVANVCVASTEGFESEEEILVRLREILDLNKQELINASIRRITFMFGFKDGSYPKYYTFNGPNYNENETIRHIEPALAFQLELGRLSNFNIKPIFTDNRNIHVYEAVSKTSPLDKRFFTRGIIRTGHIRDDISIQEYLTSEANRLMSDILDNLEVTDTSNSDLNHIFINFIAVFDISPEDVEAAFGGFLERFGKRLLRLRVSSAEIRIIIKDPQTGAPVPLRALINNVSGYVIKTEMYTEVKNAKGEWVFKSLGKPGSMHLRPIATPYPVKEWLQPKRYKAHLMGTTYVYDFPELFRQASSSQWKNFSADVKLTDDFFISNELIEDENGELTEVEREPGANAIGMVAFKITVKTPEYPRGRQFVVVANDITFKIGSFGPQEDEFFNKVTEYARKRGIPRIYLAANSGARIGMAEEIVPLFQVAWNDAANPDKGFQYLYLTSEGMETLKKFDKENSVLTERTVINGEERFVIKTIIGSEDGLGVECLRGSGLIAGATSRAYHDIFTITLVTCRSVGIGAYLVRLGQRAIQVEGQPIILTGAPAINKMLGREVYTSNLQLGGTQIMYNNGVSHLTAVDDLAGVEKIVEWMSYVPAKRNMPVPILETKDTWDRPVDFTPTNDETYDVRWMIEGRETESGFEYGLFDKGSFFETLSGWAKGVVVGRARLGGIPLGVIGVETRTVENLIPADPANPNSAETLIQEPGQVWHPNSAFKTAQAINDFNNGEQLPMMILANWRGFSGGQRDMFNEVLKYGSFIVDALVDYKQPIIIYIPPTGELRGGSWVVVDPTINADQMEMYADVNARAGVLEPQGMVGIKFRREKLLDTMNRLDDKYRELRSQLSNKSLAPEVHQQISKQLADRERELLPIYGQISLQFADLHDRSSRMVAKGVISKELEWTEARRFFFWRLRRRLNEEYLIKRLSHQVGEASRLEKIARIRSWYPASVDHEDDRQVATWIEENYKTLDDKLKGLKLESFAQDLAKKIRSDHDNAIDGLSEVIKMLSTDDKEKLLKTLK

[1] = tested on: C. parapsilosis ATCC 22019; assay: Anti-Fungal Activity Assay (broth microtiter MIC), C. parapsilosis; type: cell-based, Candida parapsilosis; details: for MIC: Lodderomyces parapsilosis, ATCC22019, 48 h, read-out: MIC C. parapsilosis ATCC 22019
Protocol: as §1

Human ACC2 = Human ACC2 (Homo sapiens, UniProt O00763); assay: In vitro ACC2 inhibition assay (ADP-Glo), human ACC2; type: biochemical; details: 5 nM ACC2, 20 μM ATP, 20 μM acetyl-CoA
Sequence of Human ACC2 (O00763 whole entry): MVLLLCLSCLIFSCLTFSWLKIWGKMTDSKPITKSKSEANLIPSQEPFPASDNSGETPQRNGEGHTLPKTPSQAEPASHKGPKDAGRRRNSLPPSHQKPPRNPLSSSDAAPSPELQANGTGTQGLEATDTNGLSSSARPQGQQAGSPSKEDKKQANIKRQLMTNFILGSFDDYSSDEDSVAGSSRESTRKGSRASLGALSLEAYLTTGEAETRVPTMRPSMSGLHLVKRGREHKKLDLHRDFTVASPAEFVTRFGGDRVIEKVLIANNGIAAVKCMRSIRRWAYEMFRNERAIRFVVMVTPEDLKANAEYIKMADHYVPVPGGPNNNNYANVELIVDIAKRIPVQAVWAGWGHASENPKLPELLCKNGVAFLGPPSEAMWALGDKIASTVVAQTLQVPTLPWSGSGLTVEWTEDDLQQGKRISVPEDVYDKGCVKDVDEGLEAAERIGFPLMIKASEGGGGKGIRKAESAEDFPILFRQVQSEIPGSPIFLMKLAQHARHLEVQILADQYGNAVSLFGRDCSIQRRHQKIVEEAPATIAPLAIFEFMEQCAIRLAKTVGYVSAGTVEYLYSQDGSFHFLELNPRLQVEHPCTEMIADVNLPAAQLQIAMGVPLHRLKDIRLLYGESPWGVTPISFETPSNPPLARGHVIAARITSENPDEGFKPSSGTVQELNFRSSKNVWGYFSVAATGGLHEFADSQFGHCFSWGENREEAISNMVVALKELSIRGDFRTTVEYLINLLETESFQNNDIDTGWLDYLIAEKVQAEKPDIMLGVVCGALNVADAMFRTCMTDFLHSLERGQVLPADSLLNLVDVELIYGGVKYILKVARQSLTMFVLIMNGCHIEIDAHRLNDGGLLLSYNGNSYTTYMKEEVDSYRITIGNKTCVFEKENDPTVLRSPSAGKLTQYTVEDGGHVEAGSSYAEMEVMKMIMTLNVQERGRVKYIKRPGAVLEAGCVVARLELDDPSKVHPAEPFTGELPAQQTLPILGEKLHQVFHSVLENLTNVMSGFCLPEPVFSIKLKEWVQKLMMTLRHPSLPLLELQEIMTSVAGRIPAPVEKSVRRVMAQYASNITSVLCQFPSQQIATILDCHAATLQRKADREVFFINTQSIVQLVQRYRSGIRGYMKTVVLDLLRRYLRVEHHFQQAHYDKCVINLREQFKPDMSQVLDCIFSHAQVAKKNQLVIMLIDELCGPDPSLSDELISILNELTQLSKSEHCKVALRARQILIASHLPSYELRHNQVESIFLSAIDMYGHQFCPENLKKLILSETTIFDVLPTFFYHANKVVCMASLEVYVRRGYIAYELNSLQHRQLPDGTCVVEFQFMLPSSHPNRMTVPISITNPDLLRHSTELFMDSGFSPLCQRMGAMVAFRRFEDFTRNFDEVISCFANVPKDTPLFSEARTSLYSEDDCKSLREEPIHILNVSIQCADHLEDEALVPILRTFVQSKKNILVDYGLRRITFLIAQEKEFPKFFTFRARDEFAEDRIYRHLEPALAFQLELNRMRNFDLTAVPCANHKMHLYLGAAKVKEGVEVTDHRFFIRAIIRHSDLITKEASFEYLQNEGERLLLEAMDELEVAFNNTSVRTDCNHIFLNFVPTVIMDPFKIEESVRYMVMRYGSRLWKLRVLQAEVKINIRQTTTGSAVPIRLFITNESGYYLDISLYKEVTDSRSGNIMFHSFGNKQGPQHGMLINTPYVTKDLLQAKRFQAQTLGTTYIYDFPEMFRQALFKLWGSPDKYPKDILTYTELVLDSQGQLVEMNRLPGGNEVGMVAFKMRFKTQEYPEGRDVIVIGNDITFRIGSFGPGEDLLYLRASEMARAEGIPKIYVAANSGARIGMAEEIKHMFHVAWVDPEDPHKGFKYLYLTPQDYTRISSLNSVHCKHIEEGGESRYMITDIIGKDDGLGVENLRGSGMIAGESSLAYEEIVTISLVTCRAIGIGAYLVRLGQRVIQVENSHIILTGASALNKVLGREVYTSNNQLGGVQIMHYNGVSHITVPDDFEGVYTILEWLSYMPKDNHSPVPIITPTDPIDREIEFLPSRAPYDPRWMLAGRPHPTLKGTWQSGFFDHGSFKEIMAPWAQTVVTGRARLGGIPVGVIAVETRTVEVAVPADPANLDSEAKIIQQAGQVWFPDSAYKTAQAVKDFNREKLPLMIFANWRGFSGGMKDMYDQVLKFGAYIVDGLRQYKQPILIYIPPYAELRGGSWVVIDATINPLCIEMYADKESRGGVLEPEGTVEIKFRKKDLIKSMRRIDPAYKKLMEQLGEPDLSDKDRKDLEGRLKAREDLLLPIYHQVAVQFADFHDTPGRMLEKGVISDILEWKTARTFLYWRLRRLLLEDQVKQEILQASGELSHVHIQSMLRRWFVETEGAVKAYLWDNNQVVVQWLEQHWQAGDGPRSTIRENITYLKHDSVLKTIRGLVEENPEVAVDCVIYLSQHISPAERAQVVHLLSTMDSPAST

C. albicans ATCC 90028 = assay: Anti-Fungal Activity Assay (broth microtiter MIC), C. albicans; type: cell-based, Candida albicans; details: for MIC: Candida albicans, ATCC90028, 48 h, read-out: MIC C. albicans ATCC 90028
Protocol: as §1

[2] = 3 replicates, MIC recorded at 48 h

Row | SMILES | IC50 (Fungal ACC2) | IC50 (Human ACC2) | further results
1 | COc1ccc(F)cc1[C@H](Cn1c(=O)n(C2CCN(C)C2=O)c(=O)c2c(C)c(-n3nccn3)sc21)OC1CCOCC1 (stereo partly drawn) [Compound I-10, 1-((R)-2-(5-fluoro-2-methoxyphenyl)-2-((tetrahydro-2H-pyran-4-yl)oxy)ethyl)-5-methyl-3-(1-methyl-2-oxopyrrolidin-3-yl)-6-(2H-1,2,3-triazol-2-yl)thieno[2,3-d]pyrimidine-2,4(1H,3H)-dione] | 0.7 to 2 nM | 2 to 10 nM | MIC (C. krusei ATCC 6258; [2]): 0.25 to 1 µg/mL (≈ 0.418 to 1.67 µM); MIC [1, 2]: 0.25 to 1 µg/mL (≈ 0.418 to 1.67 µM)
2 | COCCO[C@@H](Cn1c(=O)n(C2CCCN(C)C2=O)c(=O)c2c(C)c(-n3nccn3)sc21)c1cc(F)ccc1OC (stereo partly drawn) [Compound I-14, 1-((R)-2-(5-fluoro-2-methoxyphenyl)-2-(2-methoxy-ethoxy)ethyl)-5-methyl-3-(1-methyl-2-oxopiperidin-3-yl)-6-(2H-1,2,3-triazol-2-yl)thieno[2,3-d]pyrimidine-2,4(1H,3H)-dione] | 2 to 10 nM | 10 to 100 nM | –
3 | COc1ccccc1[C@H](Cn1c(=O)n([C@H]2CCCNC2=O)c(=O)c2c(C)c(-c3ncco3)sc21)OCCO [Compound I-60, 1-((R)-2-(2-hydroxyethoxy)-2-(2-methoxyphenyl)ethyl)-5-methyl-6-(oxazol-2-yl)-3-((S)-2-oxopiperidin-3-yl)thieno[2,3-d]pyrimidine-2,4(1H,3H)-dione] | 0.7 to 2 nM | 10 to 100 nM | –
4 | COc1ccc(F)cc1[C@H](Cn1c(=O)n([C@@H]2CCN(C(C)C)C2=O)c(=O)c2c(C)c(-n3nccn3)sc21)OC1CCOCC1 [Compound I-139, 1-((R)-2-(5-fluoro-2-methoxyphenyl)-2-((tetrahydro-2H-pyran-4-yl)oxy)ethyl)-3-((R)-1-isopropyl-2-oxopyrrolidin-3-yl)-5-methyl-6-(2H-1,2,3-triazol-2-yl)thieno[2,3-d]pyrimidine-2,4(1H,3H)-dione] | – | 2 to 10 nM | MIC C. krusei ATCC 6258 (C. krusei ATCC 6258; [2]): B (provided an MIC of 1.1-2.0 μg/mL); MIC C. parapsilosis ATCC 22019 [1, 2]: B (provided an MIC of 1.1-2.0 μg/mL); MIC C. albicans ATCC 90028 (C. albicans ATCC 90028; [2]): C (provided an MIC of 2.1-4.0 μg/mL)
5 | COCCO[C@@H](Cn1c(=O)n([C@]2(C)CCNC2=O)c(=O)c2c(C)c(-n3nccn3)sc21)c1cc(F)ccc1OC [Compound I-140, 1-((R)-2-(5-fluoro-2-methoxyphenyl)-2-(2-methoxy-ethoxy)ethyl)-5-methyl-3-((R)-3-methyl-2-oxopyrrolidin-3-yl)-6-(2H-1,2,3-triazol-2-yl)thieno[2,3-d]pyrimidine-2,4(1H,3H)-dione] | > 1000 nM | > 1000 nM | –
6 | COCCO[C@@H](Cn1c(=O)n([C@@]2(C)CCNC2=O)c(=O)c2c(C)c(-n3nccn3)sc21)c1cc(F)ccc1OC [Compound I-141, 1-((R)-2-(5-fluoro-2-methoxyphenyl)-2-(2-methoxyethoxy)ethyl)-5-methyl-3-((S)-3-methyl-2-oxopyrrolidin-3-yl)-6-(2H-1,2,3-triazol-2-yl)thieno[2,3-d]pyrimidine-2,4(1H,3H)-dione] | > 1000 nM | > 1000 nM | –
7 | COCCO[C@@H](Cn1c(=O)n([C@]2(C)CCN(C)C2=O)c(=O)c2c(C)c(-n3nccn3)sc21)c1cc(F)ccc1OC [Compound I-146, 3-((R)-1,3-dimethyl-2-oxopyrrolidin-3-yl)-1-((R)-2-(5-fluoro-2-methoxyphenyl)-2-(2-methoxyethoxy)ethyl)-5-methyl-6-(2H-1,2,3-triazol-2-yl)thieno[2,3-d]pyrimidine-2,4(1H,3H)-dione] | > 1000 nM | > 1000 nM | –
8 | COCCO[C@@H](Cn1c(=O)n([C@@]2(C)CCN(C)C2=O)c(=O)c2c(C)c(-n3nccn3)sc21)c1cc(F)ccc1OC [Compound I-148, 3-((S)-1,3-dimethyl-2-oxopyrrolidin-3-yl)-1-((R)-2-(5-fluoro-2-methoxyphenyl)-2-(2-methoxyethoxy)ethyl)-5-methyl-6-(2H-1,2,3-triazol-2-yl)thieno[2,3-d]pyrimidine-24(1H,3H)-dione] | > 1000 nM | > 1000 nM | –
9 | CCN1CC[C@H](n2c(=O)c3c(C)c(-n4nccn4)sc3n(C[C@H](OC3CCOCC3)c3cc(F)ccc3OC)c2=O)C1=O [Compound I-150, 3-((S)-1-ethyl-2-oxopyrrolidin-3-yl)-1-((R)-2-(5-fluoro-2-methoxyphenyl)-2-((tetrahydro-2H-pyran-4-yl)oxy)ethyl)-5-methyl-6-(2H-1,2,3-triazol-2-yl)thieno[2,3-d]pyrimidine-2,4(1H,3H)-dione] | – | 2 to 10 nM | MIC (C. krusei ATCC 6258; [2]): 0.075 to 0.24 µg/mL (≈ 0.122 to 0.392 µM); MIC [1, 2]: 0.25 to 1 µg/mL (≈ 0.408 to 1.63 µM); MIC (C. albicans ATCC 90028; [2]): 0.25 to 1 µg/mL (≈ 0.408 to 1.63 µM)
10 | CCN1CC[C@@H](n2c(=O)c3c(C)c(-n4nccn4)sc3n(C[C@H](OC3CCOCC3)c3cc(F)ccc3OC)c2=O)C1=O [Compound I-151] | – | 2 to 10 nM | MIC (C. krusei ATCC 6258; [2]): 0.075 to 0.24 µg/mL (≈ 0.122 to 0.392 µM); MIC [1, 2]: 0.25 to 1 µg/mL (≈ 0.408 to 1.63 µM); MIC (C. albicans ATCC 90028; [2]): 0.25 to 1 µg/mL (≈ 0.408 to 1.63 µM)
11 | COCCO[C@@H](Cn1c(=O)n([C@@H]2CCN(C)C2=O)c(=O)c2c(C)c(-n3nccn3)sc21)c1cc(F)ccc1OCC#N [Compound I-159, 2-(4-fluoro-2-((R)-1-(2-methoxyethoxy)-2-(5-methyl-3-((R)-1-methyl-2-oxopyrrolidin-3-yl)-2,4-dioxo-6-(2H2H-1,2,3-triazol-2-yl)-3,4-dihydrothieno[2,3-d]pyrimidin-1 (2H)-yl)ethyl)phenoxy)acetonitrile] | – | > 1000 nM | MIC (C. krusei ATCC 6258): 2.1 to 4 µg/mL (≈ 3.51 to 6.69 µM); MIC [1]: 2.1 to 4 µg/mL (≈ 3.51 to 6.69 µM); MIC (C. albicans ATCC 90028): 2.1 to 4 µg/mL (≈ 3.51 to 6.69 µM)
12 | COCCO[C@@H](Cn1c(=O)n([C@H]2CCN(C)C2=O)c(=O)c2c(C)c(-n3nccn3)sc21)c1cc(F)ccc1OCC#N [Compound I-160, 2-(4-fluoro-2-((R)-1-(2-methoxyethoxy)-2-(5-methyl-3-((S)-1-methyl-2-oxopyrrolidin-3-yl)-2,4-dioxo-6-(2H-1,2,3-triazol-2-yl)-3,4-dihydrothieno[2,3-d]pyrimidin-1(2H)-yl)ethyl)phenoxy)acetonitrile] | – | 10 to 100 nM | MIC (C. krusei ATCC 6258): 2.1 to 4 µg/mL (≈ 3.51 to 6.69 µM); MIC [1]: 2.1 to 4 µg/mL (≈ 3.51 to 6.69 µM); MIC (C. albicans ATCC 90028): 2.1 to 4 µg/mL (≈ 3.51 to 6.69 µM)
13 | COc1ccc(F)cc1[C@H](Cn1c(=O)n([C@@H]2CCN(C)C2=O)c(=O)c2c(C)c(-n3nccn3)sc21)O[C@H]1C[C@H](O)C1 [Compound I-185, 1-((R)-2-(5-fluoro-2-methoxyphenyl)-2-((1r,3R)-3-hydroxycyclobutoxy)ethyl)-5-methyl-3-((R)-1-methyl-2-oxopyrrolidin-3-yl)-6-(2H-1,2,3-triazol-2-yl)thieno[2,3-d]pyrimidine-2,4(1H,3H)-dione] | 0.7 to 2 nM | 2 to 10 nM | –
14 | COc1ccc(F)cc1[C@H](Cn1c(=O)n([C@@H]2CCNC2=O)c(=O)c2c(C)c(-c3ncco3)sc21)O[C@H]1CC[C@@H](O)CC1 [Compound I-191, 1-((R)-2-(5-fluoro-2-methoxyphenyl)-2-(((1s, 4S)-4-hydroxycyclohexyl)oxy)ethyl)-5-methyl-6-(oxazol-2-yl)-3-((R)-2-oxopyrrolidin-3-yl)thieno[2,3-d]pyrimidine-2,4(1H,3H)-dione] | 0.7 to 2 nM | 0.7 to 2 nM | –
15 | COc1ccc(F)cc1[C@H](Cn1c(=O)n([C@H]2CCNC2=O)c(=O)c2c(C)c(-c3ncco3)sc21)O[C@H]1CC[C@@H](O)CC1 [Compound I-192, 1-((R)-2-(5-fluoro-2-methoxyphenyl)-2-(((1 s, 4S)4-hydroxycyclohexyl)oxy)ethyl)-5-methyl-6-(oxazol-2-yl)-3-((S)-2-oxopyrrolidin-3-yl)thieno[2,3-d]pyrimidine-2,4(1H,3H)-dione] | 0.7 to 2 nM | 2 to 10 nM | –
16 | COc1ccc(F)cc1[C@H](Cn1c(=O)n([C@@H]2CCN(C)C2=O)c(=O)c2c(C)c(-c3ncco3)sc21)O[C@H]1CC[C@@H](O)CC1 [Compound I-193, 1-((R)-2-(5-fluoro-2-methoxyphenyl)-2-(((1 s, 4S)-4-hydroxycyclohexyl)oxy)ethyl)-5-methyl-3-((R)-1-methyl-2-oxopyrrolidin-3-yl)-6-(oxazol-2-yl)thieno[2,3-d]pyrimidine-2,4(1H,3H)-dione] | 0.7 to 2 nM | 2 to 10 nM | –
17 | COc1ccc(F)cc1[C@H](Cn1c(=O)n([C@H]2CCN(C)C2=O)c(=O)c2c(C)c(-c3ncco3)sc21)O[C@H]1CC[C@@H](O)CC1 [Compound I-194, 1-((R)-2-(5-fluoro-2-methoxyphenyl)-2-(((1 s, 4S)-4-hydroxycyclohexyl)oxy)ethyl)-5-methyl-3-((S)-1-methyl-2-oxopyrrolidin-3-yl)-6-(oxazol-2-yl)thieno[2,3-d]pyrimidine-2,4(1H,3H)-dione] | 0.7 to 2 nM | 2 to 10 nM | –
